Biological target: T1, human recombinant, purified wild type His-B-Raf protein kinase (Homo sapiens, UniProt P15056)
T1 construct: His
Assay: B-Raf In Vitro ELISA Assay
Type: biochemical
Conditions: 2.5 nM B-Raf, 0.15 μM MEK1, 10 μM ATP; 1 hour preincubation at 25° C.; phosphorylation of MEK1
Protocol: B-Raf In Vitro ELISA Assay
Activity of human recombinant, purified wild type His-B-Raf protein kinase was determined in vitro using an enzyme-linked immunosorbent assay (ELISA) assay format, which measures phosphorylation of the B-Raf substrate, human recombinant, purified His-derived (detagged) MEK1. The reaction utilized 2.5 nM B-Raf, 0.15 μM MEK1 and 10 μM adenosine triphosphate (ATP) in 40 mM N-(2-hydroxyethyl)piperazine-N′-(2-ethanesulfonic acid hemisodium salt (HEPES), 5 mM 1,4-dithio-DL-threitol (DTT), 10 mM MgCl2, 1 mM ethylenediaminetetraacetic acid (EDTA) and 0.2 M NaCl (1×HEPES buffer), with or without compound at various concentrations, in a total reaction volume of 25 μl in 384 well plates. B-Raf and compound were preincubated in 1×HEPES buffer for 1 hour at 25° C. Reactions were initiated with addition of MEK1 and ATP in 1×HEPES buffer and incubated at 25° C. for 50 minutes and reactions stopped by addition of 10 μl 175 mM EDTA (final concentration 50 mM) in 1×HEPES buffer. 5 μl of the assay mix was then diluted 1:20 into 50 mM EDTA in 1×HEPES buffer, transferred to 384 well black high protein binding plates and incubated overnight at 4° C. […] Blue fluorescent product was detected at excitation 325 nm and emission 420 nm using a TECAN Ultra plate reader. Data was graphed and IC50s calculated using Excel Fit (Microsoft).

T1 sequence (P15056 whole entry): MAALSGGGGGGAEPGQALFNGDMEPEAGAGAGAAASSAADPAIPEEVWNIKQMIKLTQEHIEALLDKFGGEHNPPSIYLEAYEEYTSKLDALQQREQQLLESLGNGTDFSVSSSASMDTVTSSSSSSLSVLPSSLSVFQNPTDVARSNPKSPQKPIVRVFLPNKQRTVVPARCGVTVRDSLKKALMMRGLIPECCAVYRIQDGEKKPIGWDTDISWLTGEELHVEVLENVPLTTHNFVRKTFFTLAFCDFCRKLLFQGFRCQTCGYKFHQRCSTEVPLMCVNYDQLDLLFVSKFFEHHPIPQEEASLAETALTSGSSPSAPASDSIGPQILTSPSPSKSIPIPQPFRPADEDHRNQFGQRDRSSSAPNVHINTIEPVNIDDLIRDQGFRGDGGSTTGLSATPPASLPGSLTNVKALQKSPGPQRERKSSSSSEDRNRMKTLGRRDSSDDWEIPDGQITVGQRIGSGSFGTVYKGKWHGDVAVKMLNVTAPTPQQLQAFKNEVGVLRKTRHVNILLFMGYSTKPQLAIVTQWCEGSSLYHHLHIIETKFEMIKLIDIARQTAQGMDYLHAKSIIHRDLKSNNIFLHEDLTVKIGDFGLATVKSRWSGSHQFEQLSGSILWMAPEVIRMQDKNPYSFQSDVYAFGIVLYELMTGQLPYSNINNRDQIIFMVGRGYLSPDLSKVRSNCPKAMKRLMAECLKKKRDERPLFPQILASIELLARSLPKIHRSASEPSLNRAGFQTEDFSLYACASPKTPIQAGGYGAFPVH

IC50 [nM] | Compound
1 | Cc1ccc(NC(=O)c2cccc(C(C)(C)C#N)c2)cc1NC(=O)c1ccc2nc[nH]c(=O)c2c1 [Example 1, N-(5-{[3-(1-Cyano-1-methylethyl)benzoyl]amino}-2-methylphenyl)-4-oxo-3,4-dihydroquinazoline-6-carboxamide]
3 | Cc1ccc(NC(=O)c2cccc(C(C)(C)C#N)c2)cc1NC(=O)c1ccc2ncn(C)c(=O)c2c1 [Example 6, N-(5-{[3-(1-Cyano-1-methylethyl)benzoyl]amino}-2-methylphenyl)-3-methyl-4-oxo-3,4-dihydroquinazoline-6-carboxamide]

Source: patent US20090054469A1, “QUINAZOLINONE DERIVATIVES AND THEIR USE AS B-RAF INHIBITORS” (ASTRAZENECA AB, priority 2005, published 2009)
